From patent US20180267043A1, “USE OF BIOMARKERS FOR PREDICTING CLINICAL SENSITIVITY TO CANCER TREATMENT” (CELGENE CORPORATION, priority 2014, published 2018)

Key:
[1] = system: CRBN and its substrates IKZF1, GSPT1, GSPT2; assay: In vitro binding assay, anti-HA immunoprecipitation and immunoblotting; conditions: cell lysates
Method: CRBN−/− cells expressing HA-tagged substrates were lysed and incubated with anti-HA antibody to pull down substrates. CRBN positive cells expressing shGSPT1 that specifically knocks down GSPT1 were lysed, then mixed with the substrates obtained from CRBN−/− cells. The mixture was incubated with DMSO alone or compounds. Immunoprecipitation using anti-HA antibody was performed. Then, immunoblotting was performed using anti-CRBN or anti-HA antibodies.

HEK 293FT cells = assay: CellTiter-Glo cell viability assay, HEK 293FT cells with GSPT1 overexpression; assay type: cell-based, human
Method: The effect of overexpression of GSPT1 on Compound C-induced growth inhibition was tested in HEK 293FT cells. 293 cells stably expressing GSPT1 driven by three different promoters were generated. To these cells, Compound C was added at concentration of 0, 1 nM, 10 nM, 100 nM, or 1000 nM. Cell proliferation was measured by CellTiter-Glo cell viability assay (RLU-Relative Luminescent Unit) at day 2. […] The expression level of GSPT1 was measured at 10 hours after compound treatment in the right part of FIG. 7. […] Thus, overexpression of GSPT1 confers Compound C resistance to HEK 293FT cells.

GSPT1 = molecular target: T1, GSPT1 (Homo sapiens, UniProt P15170); assay: GSPT1 expression level in HEK 293FT cells after compound treatment; assay type: cell-based; conditions: CRBN+/+ cells, 10 hours, 100 nM or 1000 nM, compared to CRBN−/− cells
T1 construct: endogenous in cells; host or cells: HEK 293FT cells (CRBN+/+)
T1 sequence (P15170 whole entry): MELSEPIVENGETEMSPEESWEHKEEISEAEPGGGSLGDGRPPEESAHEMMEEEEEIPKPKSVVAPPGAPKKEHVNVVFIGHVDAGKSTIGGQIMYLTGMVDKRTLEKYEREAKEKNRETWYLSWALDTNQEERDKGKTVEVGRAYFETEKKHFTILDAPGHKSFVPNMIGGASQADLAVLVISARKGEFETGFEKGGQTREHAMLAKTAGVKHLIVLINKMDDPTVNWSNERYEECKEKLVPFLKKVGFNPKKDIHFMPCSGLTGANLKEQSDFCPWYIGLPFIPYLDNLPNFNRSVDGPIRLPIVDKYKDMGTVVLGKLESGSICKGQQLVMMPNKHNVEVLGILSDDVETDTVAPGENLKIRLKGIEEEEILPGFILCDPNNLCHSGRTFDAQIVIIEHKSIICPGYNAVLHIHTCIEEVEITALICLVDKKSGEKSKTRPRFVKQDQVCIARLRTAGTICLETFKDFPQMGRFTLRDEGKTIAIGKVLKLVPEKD
T1 sequence (Q96SW2 whole entry, further chain): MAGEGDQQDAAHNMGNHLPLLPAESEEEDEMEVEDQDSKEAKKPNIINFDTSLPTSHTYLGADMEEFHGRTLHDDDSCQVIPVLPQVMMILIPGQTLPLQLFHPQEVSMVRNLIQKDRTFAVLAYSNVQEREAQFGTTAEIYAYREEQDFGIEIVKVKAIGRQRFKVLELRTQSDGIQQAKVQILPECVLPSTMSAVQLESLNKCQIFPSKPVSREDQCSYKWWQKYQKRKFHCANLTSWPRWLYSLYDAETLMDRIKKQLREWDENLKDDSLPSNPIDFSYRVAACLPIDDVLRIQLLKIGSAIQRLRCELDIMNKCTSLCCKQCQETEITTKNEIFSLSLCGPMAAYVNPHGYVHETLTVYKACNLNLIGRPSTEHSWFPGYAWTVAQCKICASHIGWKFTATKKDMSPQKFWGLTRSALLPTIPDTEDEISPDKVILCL
T1 sequence (Q16531 whole entry partner): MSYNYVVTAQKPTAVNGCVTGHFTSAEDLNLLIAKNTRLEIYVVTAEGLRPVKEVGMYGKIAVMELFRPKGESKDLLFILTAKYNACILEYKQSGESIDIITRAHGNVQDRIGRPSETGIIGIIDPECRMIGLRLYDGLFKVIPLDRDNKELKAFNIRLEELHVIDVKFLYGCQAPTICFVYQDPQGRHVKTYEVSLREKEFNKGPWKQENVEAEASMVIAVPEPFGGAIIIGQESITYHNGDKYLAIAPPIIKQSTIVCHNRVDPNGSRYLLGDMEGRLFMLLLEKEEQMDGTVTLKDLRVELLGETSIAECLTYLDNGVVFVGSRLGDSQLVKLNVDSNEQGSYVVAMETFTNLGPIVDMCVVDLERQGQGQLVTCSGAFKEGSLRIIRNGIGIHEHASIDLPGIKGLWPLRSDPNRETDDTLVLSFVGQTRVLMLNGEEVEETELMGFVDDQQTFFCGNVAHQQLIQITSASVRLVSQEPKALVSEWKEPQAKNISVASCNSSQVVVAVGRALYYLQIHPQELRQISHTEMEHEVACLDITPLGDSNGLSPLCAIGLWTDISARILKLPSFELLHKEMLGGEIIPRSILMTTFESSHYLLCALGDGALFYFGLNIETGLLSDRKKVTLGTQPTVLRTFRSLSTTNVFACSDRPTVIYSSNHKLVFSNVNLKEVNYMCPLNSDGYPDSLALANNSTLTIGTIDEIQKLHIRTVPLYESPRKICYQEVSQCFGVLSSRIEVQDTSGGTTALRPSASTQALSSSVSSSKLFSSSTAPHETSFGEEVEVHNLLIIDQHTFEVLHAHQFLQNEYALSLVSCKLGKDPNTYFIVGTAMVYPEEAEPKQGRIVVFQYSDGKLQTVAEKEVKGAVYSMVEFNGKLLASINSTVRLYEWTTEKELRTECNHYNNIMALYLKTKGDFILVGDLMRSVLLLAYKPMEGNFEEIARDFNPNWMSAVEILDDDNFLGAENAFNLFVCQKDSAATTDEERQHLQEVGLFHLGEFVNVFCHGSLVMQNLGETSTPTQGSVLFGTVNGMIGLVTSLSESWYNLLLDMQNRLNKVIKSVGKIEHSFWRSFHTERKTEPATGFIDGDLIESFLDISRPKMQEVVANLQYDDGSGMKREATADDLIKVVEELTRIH

Molm13 = assay: CellTiter-Glo cell viability assay, Molm13; assay type: cell-based, human; conditions: 48 hours
Method: The effect of overexpression of GSPT1 on the anti-proliferative effect of Compound C was determined in human histiocytic lymphoma cell line U937 and human leukemia cell line Molm13. Treatment compounds were titrated from 0.1 nM to 1 μM. Cell proliferation was measured by CellTiter-Glo cell viability assay at 48 hours after treatment.

[2] = system: Human Acute Myeloblastic Leukemia Cell Line KG1; assay: Anti-proliferative effect after GSPT1 knockdown, KG1 (FIG. 12A); assay type: cell-based
[3] = system: GSPT1, IKZF1, IKZF3, UPR or apoptosis pathways; assay: Protein level of UPR and apoptosis components in DF15 cells; assay type: cell-based, human; conditions: DF15, 20 nM, 5 or 10 hours
Method: Cells were treated with DMSO alone or 20 nM Compound C. After 5 or 10 hours, the expression level of various cellular components along UPR or apoptosis pathways was measured. […] Loss of BIP immunoreactivity indicates an induction of UPR.

[4] = system: GSPT1, UPR or apoptosis pathways; assay: Protein level of UPR and apoptosis components in KG1 cells; assay type: cell-based, human
Method: Cells were treated with DMSO alone or 20 nM Compound C. The expression levels of various cellular components along UPR or apoptosis pathways were measured at various time points post treatment.

PERK/EIF2a/ATF4 pathway = assay: mRNA level of PERK/EIF2a/ATF4 pathway components in KG1 cells; assay type: cell-based, human; conditions: KG1 cells (FIG. 18C)
XBP1 and ATF6 pathways = assay: RNA level of XBP1 and ATF6 pathway components in KG1 cells; assay type: cell-based, human; conditions: KG1, 20 nM, 2, 4, or 6 hours
Method: The mechanism of Compound C-activated XBP1 and ATF6 pathways of UPR was studied in KG1 cells. Cells were treated with DMSO or 20 nM Compound C for 2, 4, or 6 hours. The RNA level of variant cellular components along the XBP1 and ATF6 pathways was measured and normalized with GAPDH.

[5] = system: normal peripheral blood mononuclear cell (PBMC); assay: Response of normal PBMC: GSPT1, ATF3, DDIT3 and apoptosis indicators; assay type: cell-based; conditions: 20 hours
Method: The response of PBMC to Compound C treatment was monitored by measuring the expression of GSPT1, ATF3, DDIT3, and downstream apoptosis indicators in PBMC. PBMCs were treated with 1 nM, 10 nM, 100 nM, or 1000 nM of Compound C for 20 hours. […] Thus, GSPT1, ATF3, DDIT3, cleaved Caspase-3, and cleaved PARP can serve as biomarkers predicting the toxicity of Compound C.

RPMI-8226 = assay: Sensitivity to compound-induced ER stress and apoptosis, RPMI-8226; assay type: cell-based, human
Method: (§1) The GSPT1 dependency was shown by GSPT1-specific shRNA knockdown experiment. The GSPT1 degradation efficiency was shown by Western Blot. The induction of ATF3 or DDIT3 was measured by quantitative RT-PCR. […] Time needed for Compound C-induced ER stress or Compound C-induced apoptosis was summarized. […] High ER demand may contribute to the sensitivity of certain cancer cells to the treatment of Compound C.

[6] = system: KG1, DF15, AML3, and 293FT; assay: Sensitivity to compound-induced ER stress and apoptosis, KG1, DF15, AML3, 293FT; assay type: cell-based, human
Method: as §1

[7] = PBMC, 1 nM, 10 nM, 100 nM, or 1000 nM

Question: For `Cc1ccc(NC(=O)NCc2ccc3c(c2)CN(C2CCC(=O)NC2=O)C3=O)cc1Cl` (centres unmarked) [Compound C, 1-(3-chloro-4-methylphenyl)-3-((2-(2,6-dioxopiperidin-3-yl)-1-oxoisoindolin-5-yl)methyl)urea], which “Interaction between CRBN and GSPT1 or GSPT2” value [1] is on record?
Answer: Its value is “promotes the interaction”.

Question: What about the “Interaction between CRBN and IKZF1” value [1] of the same molecule?
Answer: The value was “promotes the interaction”.

Question: What about the “Cell proliferation (growth inhibition)” value (HEK 293FT cells; GSPT1 overexpression driven by different promoters, 0-1000 nM, day 2) of the same molecule?
Answer: Its value is “confers various degrees of resistance to Compound C-induced growth inhibition”.

Question: What about the “Cell proliferation (compound resistance)” value (HEK 293FT cells; cells expressing CMV-GSPT1) of the same molecule?
Answer: The value was “exhibit the highest level of Compound C resistance”.

Question: And the Cell proliferation (HEK 293FT cells; parental cells, 0-1000 nM, day 2)?
Answer: The Cell proliferation was “inhibits cell proliferation in parental cells”.

Question: And the GSPT1 expression level (GSPT1)?
Answer: Its GSPT1 expression level is “GSPT1 is degraded in CRBN+/+ cells”.

Question: What about the Anti-proliferative effect (Molm13; Molm13, exogenous GSPT1 overproduced via EF1a promoter) of the same molecule?
Answer: The Anti-proliferative effect was “the anti-proliferative effect of Compound C reduces”.

Question: And the Anti-proliferative effect (Molm13; Molm13 CRBN −/− cells)?
Answer: Its Anti-proliferative effect is “completely abolished”.

Question: And the Cell proliferation (Molm13; Molm13 parental cells, 0.1 nM to 1 μM)?
Answer: Its Cell proliferation is “inhibits cell proliferation”.

Question: And the Anti-proliferative effect ([2]; KG1 (FIG. 12A))?
Answer: Its Anti-proliferative effect is “exhibited anti-proliferative effect”.

Question: What about the Anti-proliferative effect ([2]; KG1, GSPT1 downregulated by shGSPT1-1 or shGSPT1-3) of the same molecule?
Answer: Its Anti-proliferative effect is “the anti-proliferative effect increased”.

Question: And the “Degradation of GSPT1, IKZF1, and IKZF3” value [3]?
Answer: The value was “induces degradation of GSPT1, IKZF1, and IKZF3”.

Question: And the “Immunoreactivity of antibodies recognizing KDEL motif and BIP C-terminal epitope” value [3]?
Answer: Its value is “loss of immunoreactivity”.

Question: What about the “Level of pEIF2α, ATF4, ATF3, DDIT3, cleaved caspase 3, and cleaved PARP” value [3] of the same molecule?
Answer: Its value is “increases the level”.

Question: And the “Levels of Mcl-1 and pS112-BAD” value ([4]; KG1 (FIG. 18B))?
Answer: Its value is “decrease in response to Compound C treatment”.

Question: And the “Levels of cleaved Caspase-8, BID, cleaved Caspase-9, cleaved Caspase-3, cleaved Caspase-7, and cleaved PARP” value ([4]; KG1 (FIG. 18B))?
Answer: Its value is “increase in response to Compound C treatment”.

Question: What about the “Degradation of GSPT1” value ([4]; KG1, 20 nM) of the same molecule?
Answer: The value was “induced degradation of GSPT1”.

Question: What about the “Expression of ATF-4 and ATF-3” value ([4]; KG1, 20 nM) of the same molecule?
Answer: The value was “increased the expression of ATF-4 and its downstream target ATF-3”.

Question: What about the “Levels of pEIF2α, DDIT3, cleaved Caspase-3, and cleaved PARP” value ([4]; KG1, 20 nM) of the same molecule?
Answer: Its value is “also increased”.

Question: What about the “mRNA level of ATF4, ATF3, DDIT3, PPP1R15A, GADD45A, TNFRSF1B, and TNFRSF10B” value (PERK/EIF2a/ATF4 pathway) of the same molecule?
Answer: The value was “Compound C-induced expression of ATF4, ATF3, DDIT3, PPP1R15A, GADD45A, TNFRSF1B, and TNFRSF10B”.

Question: And the “RNA level of ATF6 pathway components (XBP1)” value (XBP1 and ATF6 pathways)?
Answer: Its value is “induces expression”.

Question: And the “RNA level of XBP1 pathway components (SEC24D, DNAJB9, EDEM1, XBP1)” value (XBP1 and ATF6 pathways)?
Answer: The value was “induces expression”.

Question: What about the “Cleaved Caspase-3” value [5, 7] of the same molecule?
Answer: Its value is “increasing cleaved Caspase-3”.

Question: And the “Expression of GSPT1” value [5, 7]?
Answer: Its value is “decreases the expression of GSPT1”.

Question: And the “Level of p-EIF2α, ATF3 and DDIT3” value [5, 7]?
Answer: The value was “increases the level”.

Question: What about the Apoptosis ([5]; normal PBMC) of the same molecule?
Answer: Its Apoptosis is “induces apoptosis”.

Question: What about the “Sensitivity to compound-induced ER stress and apoptosis” value (RPMI-8226) of the same molecule?
Answer: The value was “resistant to Compound C-induced ER stress and apoptosis”.

Question: What about the “Sensitivity to the compound” value ([6]; KG1, DF15, AML3, and 293FT) of the same molecule?
Answer: The value was “exhibit different levels of sensitivity to Compound C”.

Question: What about the “Order in time of compound-induced ER stress and apoptosis” value ([6]; cancer cell lines of FIG. 21) of the same molecule?
Answer: Its value is “Compound C-induced ER stress precedes Compound C-induced apoptosis”.
